Test results: US20100286074A1, “PHARMACEUTICAL USE OF G[…] MIXTURE THEREOF AND PHARMACEUTICAL COMPOSITION OF G[…] USE THEREOF” (LIMIN PHARMACEUTICAL FACTORY, LIVZON GROUP, priority 2007, published 2010)
Structures can show the parent of a compound that is named as a salt.

Legend:
[1] = Laboratory examination: liver function, blood and urine routine; format: in vivo, human
bleeding time = assay: Bleeding time (Duke Method) in patients; format: in vivo, human
Experimental: (§1) The basic drugs taken by the patients for treating their cardiovascular and cerebrovascular diseases were maintained the same in terms of dosage and usage during the period for observation, but they are forbidden to take anticoagulant drug, such as aspirin, dipyridamole or Phenylbutazone. The administration was stopped at the end of 4th week and re-examination was performed to observe the change of indexes.
(§2) Duke Method and Test Tube Method were used for determination respectively. The same method was used for the same case. The values are compared before and after the determination, and the changing values are calculated.

[2] = test system: platelet aggregation induced by ADP; assay: Platelet aggregation induced by ADP in patients after drug administration; format: in vivo, human; conditions: for platelet aggregation rate: patients, x ± s
Source text: • a. The patients with chronic cardiovascular and cerebrovascular diseases, and the course of disease >1 month; • b.
• a. The patients attacked by acute myocardial infarction or stroke in one month; • b. […] The patients with medical history of serious liver, kidney disease, or digestive tract or other organ bleeding; • d. The persons with reduced granulocytes or platelets.
(§3) The course for both experimental group and control group are four weeks.
as §1
Induction experiment of two different concentrations of ADP (0.5 μmol/L and 1.0 μmol/L) was performed and re-examination was conducted on the 2nd and 4th weekends.
In Table 1, 0.5 and 1.0 represent the induction rate of 0.5 μmol/L of ADP and 1.0 μmol/L of ADP respectively.

clotting time = assay: Clotting time (Test Tube Method) in patients; format: in vivo, human
Experimental: as §1, §2

[3] = Adverse reactions in patients
Source text: as §3

[4] = after taking drug (four-week course)
[5] = before taking drug (baseline of the group)
[6] = four weeks of one tablet per day oral, induction with 0.5 μmol/L ADP
[7] = four weeks of one tablet per day oral, induction with 1.0 μmol/L ADP
[8] = two weeks of one tablet per day oral, induction with 0.5 μmol/L ADP
[9] = two weeks of one tablet per day oral, induction with 1.0 μmol/L ADP

Row | liver function, blood and urine routine ([1]; in vivo) | Compound | liver function, blood and urine routine ([1]; before taking drugs vs after taking drugs for 4 weeks, all within normal limits) | bleeding time (bleeding time; [4]) | bleeding time (bleeding time; [5]) | platelet aggregation rate compared with the control group (TCP) ([2]; after taking drugs for 4 weeks) | platelet aggregation rate [2, 6] | platelet aggregation rate [2, 7] | platelet aggregation rate [2, 8] | platelet aggregation rate [2, 9] | clotting time (clotting time; [4]) | clotting time (clotting time; [5]) | adverse reactions incidence ([3]; four-week course, mainly dizziness, nausea, conjunctiva bleeding and bleeding spot on skin) | cases with skin rash, hoarseness and mild dysphagia ([3]; human, in vivo, 2 weeks) | adverse reactions incidence ([3]; human, in vivo, 4 weeks) | incidence of conjunctiva bleeding, purpura and bleeding spot on skin ([3]; human, in vivo, 4 weeks)
1 |  | CC(C)=CCC[C@](C)(O)[C@H]1CC[C@]2(C)[C@@H]1[C@H](O)C[C@@H]1[C@@]3(C)CC[C@H](O)C(C)(C)[C@@H]3[C@@H](O[C@@H]3O[C@H](CO)[C@@H](O)[C@H](O)[C@H]3O)C[C@]12C [ginsenoside Rh1] | do not change significantly | 1.89 ± 1.11 min | 1.72 ± 1.20 min | smaller than that of the control group obviously | 28.8 ± 23.4% | 34.3 ± 25.6% | 28.7 ± 22.5% | 35.4 ± 23.4% | 7.83 ± 2.55 min | 7.17 ± 2.59 min | 6.86% |  |  | 
2 | do not change significantly | Clc1ccccc1CN1CCc2sccc2C1 [TCP, ticlopidine hydrochloride, reference compound] |  | 2.29 ± 1.40 min | 1.73 ± 1.35 min |  | 32.8 ± 23.1% | 37.2 ± 25.4% | 28.3 ± 23.8% | 35.3 ± 20.8% |  |  |  | 2 cases | 11.87% | 3.45%
